Source: ChEMBL document CHEMBL1759997, “Discovery of a piperazine urea based compound as a potent, selective, orally bioavailable melanocortin subtype-4 receptor partial agonist” (Bioorg Med Chem Lett, 2011)
Activity calls are given as the source filed them. The calls are words filed in the database; no cut-off is given here.

Key:
Mus musculus [1] = assay: Antiobesity activity in MC3R/MC4R knockout mouse assessed as reduction in food intake at 20 mg/kg after 4 hrs post dosing relative to control; assay type: functional, organism-based; set-up: dose 20 mg/kg
[2] = Half life in rhesus monkey at 1 mg/kg, po; assay type: ADME, organism-based, Macaca mulatta; set-up: dose 1 mg/kg, route oral; conditions: in vivo
[3] = Clearance in Beagle dog at 1 mg/kg, po; assay type: ADME, organism-based, Canis lupus familiaris; set-up: dose 1 mg/kg, route oral; conditions: in vivo
Mus musculus [4] = assay: Antiobesity activity in wild type mouse assessed as reduction in food intake at 20 mg/kg after 4 hrs post dosing relative to control; assay type: functional; set-up: scale not given: the % may be the effect or the level left
[5] = Half life in Beagle dog at 1 mg/kg, po; assay type: ADME, organism-based, Canis lupus familiaris; set-up: dose 1 mg/kg, route oral; conditions: in vivo
[6] = Clearance in Sprague-Dawley rat at 1 mg/kg, iv and 4 mg/kg, po; assay type: ADME, organism-based; conditions: in vivo
[7] = Oral bioavailability in Beagle dog at 1 mg/kg; assay type: ADME, organism-based, Canis lupus familiaris; conditions: in vivo
Melanocortin receptor 5 [8] = biological target: T1, Melanocortin receptor 5 (Homo sapiens, UniProt P33032); assay: Displacement of [125I]NDP-alpha-MSH from human MC5 receptor expressed in CHO cells; assay type: cell-based
T1 sequence (P33032 whole entry): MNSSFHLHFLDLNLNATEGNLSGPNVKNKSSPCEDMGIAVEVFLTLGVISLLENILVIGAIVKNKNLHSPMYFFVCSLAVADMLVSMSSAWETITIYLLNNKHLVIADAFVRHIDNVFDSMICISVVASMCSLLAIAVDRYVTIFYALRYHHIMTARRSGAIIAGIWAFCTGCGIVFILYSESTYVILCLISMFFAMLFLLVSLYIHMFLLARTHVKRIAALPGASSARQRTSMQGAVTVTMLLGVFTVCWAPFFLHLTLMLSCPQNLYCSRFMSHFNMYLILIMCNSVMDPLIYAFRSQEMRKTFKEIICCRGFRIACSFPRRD

[9] = Volume of distribution in Sprague-Dawley rat at 1 mg/kg, iv and 4 mg/kg, po; assay type: ADME, organism-based; conditions: in vivo, read-out: Vdss
[10] = biological target: Voltage-gated inwardly rectifying potassium channel KCNH2 (Homo sapiens, UniProt Q12809); assay: Inhibition of human ERG
Chain of Voltage-gated inwardly rectifying potassium channel KCNH2 (Q12809 whole entry): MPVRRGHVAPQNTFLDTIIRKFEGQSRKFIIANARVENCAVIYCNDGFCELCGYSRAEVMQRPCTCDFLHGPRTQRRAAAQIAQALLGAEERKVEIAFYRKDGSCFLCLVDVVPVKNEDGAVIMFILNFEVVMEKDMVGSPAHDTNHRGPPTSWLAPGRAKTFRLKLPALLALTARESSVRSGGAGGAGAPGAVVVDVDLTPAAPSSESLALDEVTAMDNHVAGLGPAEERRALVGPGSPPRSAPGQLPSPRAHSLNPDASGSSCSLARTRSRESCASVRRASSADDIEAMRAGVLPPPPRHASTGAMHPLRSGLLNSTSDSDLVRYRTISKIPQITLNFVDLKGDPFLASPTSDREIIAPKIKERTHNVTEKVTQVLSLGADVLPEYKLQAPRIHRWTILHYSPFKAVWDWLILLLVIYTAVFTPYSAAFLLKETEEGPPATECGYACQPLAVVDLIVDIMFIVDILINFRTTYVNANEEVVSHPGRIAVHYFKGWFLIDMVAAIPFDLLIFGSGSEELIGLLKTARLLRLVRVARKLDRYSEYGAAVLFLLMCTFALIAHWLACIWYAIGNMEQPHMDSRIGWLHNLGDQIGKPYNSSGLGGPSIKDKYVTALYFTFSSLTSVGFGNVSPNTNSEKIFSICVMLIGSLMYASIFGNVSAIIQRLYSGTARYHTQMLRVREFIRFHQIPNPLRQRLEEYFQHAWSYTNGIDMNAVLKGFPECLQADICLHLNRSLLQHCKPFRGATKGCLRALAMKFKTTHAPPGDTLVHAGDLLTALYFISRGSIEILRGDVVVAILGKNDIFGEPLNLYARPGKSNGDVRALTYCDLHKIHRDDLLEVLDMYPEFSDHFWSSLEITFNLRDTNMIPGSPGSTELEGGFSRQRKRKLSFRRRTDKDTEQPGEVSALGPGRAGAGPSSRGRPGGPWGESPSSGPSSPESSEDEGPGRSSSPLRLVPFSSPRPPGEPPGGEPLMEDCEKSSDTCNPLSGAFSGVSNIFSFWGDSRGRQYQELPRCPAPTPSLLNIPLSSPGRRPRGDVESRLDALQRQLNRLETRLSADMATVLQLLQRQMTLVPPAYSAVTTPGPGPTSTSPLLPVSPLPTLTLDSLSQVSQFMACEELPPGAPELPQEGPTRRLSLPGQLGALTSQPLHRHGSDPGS

[11] = Binding affinity to calcium channel
Mus musculus [12] = assay: Antiobesity activity in diet-induced obesity mouse model assessed as reduction in food intake at 20 mg/kg after 4 hrs post dosing relative to control; assay type: functional, organism-based; set-up: dose 20 mg/kg
Canis familiaris = assay: Volume of distribution in Beagle dog at 1 mg/kg, po; assay type: ADME, organism-based, Canis lupus familiaris; set-up: dose 1 mg/kg, route oral; conditions: in vivo
[13] = Binding affinity to sodium channel
[14] = biological target: T2, Melanocyte-stimulating hormone receptor (Homo sapiens, UniProt Q01726); assay: Displacement of [125I]NDP-alpha-MSH from human MC1 receptor expressed in CHO cells; assay type: cell-based
Target sequence in this assay (Q01726 whole entry): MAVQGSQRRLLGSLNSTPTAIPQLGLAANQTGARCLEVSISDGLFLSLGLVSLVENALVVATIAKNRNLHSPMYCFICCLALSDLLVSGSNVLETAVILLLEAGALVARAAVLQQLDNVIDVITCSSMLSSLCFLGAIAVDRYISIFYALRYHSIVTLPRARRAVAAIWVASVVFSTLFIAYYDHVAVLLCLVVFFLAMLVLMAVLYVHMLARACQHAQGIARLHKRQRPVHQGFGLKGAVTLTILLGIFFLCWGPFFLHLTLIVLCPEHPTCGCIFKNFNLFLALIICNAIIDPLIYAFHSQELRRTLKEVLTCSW

Melanocortin receptor 3 [15] = biological target: T3, Melanocortin receptor 3 (Homo sapiens, UniProt P41968); assay: Displacement of [125I]NDP-alpha-MSH from human MC3 receptor expressed in CHO cells; assay type: cell-based
T3 sequence (P41968 whole entry): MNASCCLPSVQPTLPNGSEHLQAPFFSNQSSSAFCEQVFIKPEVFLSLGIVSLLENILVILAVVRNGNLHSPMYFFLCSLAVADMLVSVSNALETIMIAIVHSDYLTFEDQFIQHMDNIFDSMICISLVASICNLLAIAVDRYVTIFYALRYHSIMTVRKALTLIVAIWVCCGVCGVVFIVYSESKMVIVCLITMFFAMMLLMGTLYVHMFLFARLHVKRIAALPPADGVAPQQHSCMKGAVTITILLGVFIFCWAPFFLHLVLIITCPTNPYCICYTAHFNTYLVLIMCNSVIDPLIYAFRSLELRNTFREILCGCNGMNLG

Rattus norvegicus [16] = assay: Antiobesity activity in diet-induced obesity rat model assessed as reduction in body weight at 5 mg/kg, po BID for 14 days relative to control; assay type: functional, organism-based; set-up: dose 5 mg/kg
Rattus norvegicus [17] = assay: Antiobesity activity in diet-induced obesity rat model assessed as reduction in body weight at 10 mg/kg, po BID for 14 days relative to control; assay type: functional, organism-based; set-up: dose 10 mg/kg
Mus musculus [18] = assay: Increase in erectile activity in CN-stimulated mouse at 10 mg/kg, iv; assay type: functional, organism-based; set-up: dose 10 mg/kg
[19] = Clearance in rhesus monkey at 1 mg/kg, po; assay type: ADME, organism-based, Macaca mulatta; set-up: dose 1 mg/kg, route oral; conditions: in vivo
Melanocortin receptor 5 [20] = biological target: T1, Melanocortin receptor 5; assay: Agonist activity at human MC5 receptor expressed in CHO cells assessed as cAMP accumulation; assay type: functional, cell-based
Melanocortin receptor 3 [21] = biological target: T3, Melanocortin receptor 3; assay: Agonist activity at human MC3 receptor expressed in CHO cells assessed as cAMP accumulation at 10 uM relative to alpha-MSH; assay type: functional, cell-based
Melanocortin receptor 4 [22] = biological target: T4, Melanocortin receptor 4 (Homo sapiens, UniProt P32245); assay: Agonist activity at human MC4 receptor expressed in CHO cells assessed as cAMP accumulation; assay type: functional, cell-based
T4 sequence (P32245 whole entry): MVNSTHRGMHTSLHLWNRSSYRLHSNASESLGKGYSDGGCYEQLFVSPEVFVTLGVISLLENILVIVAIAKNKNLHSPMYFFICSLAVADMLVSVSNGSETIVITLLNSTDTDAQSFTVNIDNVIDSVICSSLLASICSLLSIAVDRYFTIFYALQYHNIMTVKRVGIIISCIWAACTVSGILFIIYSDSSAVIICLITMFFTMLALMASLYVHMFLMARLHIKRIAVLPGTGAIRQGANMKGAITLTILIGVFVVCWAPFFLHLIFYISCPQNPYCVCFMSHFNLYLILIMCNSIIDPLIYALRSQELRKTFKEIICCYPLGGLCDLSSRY

Rhesus monkey = assay: Volume of distribution in rhesus monkey at 1 mg/kg, po; assay type: ADME, organism-based, Macaca mulatta; set-up: dose 1 mg/kg, route oral; conditions: in vivo
[23] = Plasma concentration in rat at 10 mg/kg, iv after 15 mins; assay type: ADME, organism-based; set-up: dose 10 mg/kg, route intravenous
[24] = biological target: T2, Melanocyte-stimulating hormone receptor; assay: Agonist activity at human MC1 receptor expressed in CHO cells assessed as cAMP accumulation at 10 uM relative to alpha-MSH; assay type: functional, cell-based
Target sequence in this assay (Q01726 whole entry, looked up): as the sequence (Q01726 whole entry) above

[25] = Half life in Sprague-Dawley rat at 1 mg/kg, iv and 4 mg/kg, po; assay type: ADME, organism-based; conditions: in vivo
Melanocortin receptor 4 [26] = biological target: T4, Melanocortin receptor 4; assay: Agonist activity at human MC4 receptor expressed in CHO cells assessed as cAMP accumulation at 10 uM relative to alpha-MSH; assay type: functional, cell-based
[27] = Oral bioavailability in Sprague-Dawley rat at 1 mg/kg and 4 mg/kg; assay type: ADME, organism-based; conditions: in vivo
Melanocortin receptor 5 [28] = biological target: T1, Melanocortin receptor 5; assay: Agonist activity at human MC5 receptor expressed in CHO cells assessed as cAMP accumulation at 10 uM relative to alpha-MSH; assay type: functional, cell-based
Rattus norvegicus [29] = assay: Antiobesity activity in diet-induced obesity rat model assessed as reduction in body weight at 20 mg/kg, po BID for 14 days relative to control; assay type: functional, organism-based; set-up: dose 20 mg/kg
[30] = Oral bioavailability in rhesus monkey at 1 mg/kg; assay type: ADME, organism-based, Macaca mulatta; conditions: in vivo
Melanocortin receptor 4 [31] = biological target: T4, Melanocortin receptor 4; assay: Displacement of [125I]NDP-alpha-MSH from human MC4 receptor expressed in CHO cells; assay type: cell-based
[32] = biological target: T2, Melanocyte-stimulating hormone receptor; assay: Agonist activity at human MC1 receptor expressed in CHO cells assessed as cAMP accumulation; assay type: functional, cell-based
Target sequence in this assay (Q01726 whole entry): as above

Mus musculus [33] = assay: Increase in erectile activity in CN-stimulated mouse at 0.3 mg/kg, iv; assay type: functional, organism-based; set-up: dose 0.3 mg/kg
[34] = Plasma concentration in rat at 0.3 mg/kg, iv after 15 mins; assay type: ADME, organism-based; set-up: dose 0.3 mg/kg, route intravenous

Compound | clearance [6] [mL/min/kg] | IC50 (Melanocortin receptor 5 [8]) [nM] | Vd [9] [L/kg] | IC50 [14] [nM] | IC50 (Melanocortin receptor 3 [15]) [nM] | EC50 (Melanocortin receptor 5 [20]) [nM] | Activity (Melanocortin receptor 3 [21]) [%] | EC50 (Melanocortin receptor 4 [22]) [nM] | Activity [24] [%] | half-life [25] [h] | Activity (Melanocortin receptor 4 [26]) [%] | bioavailability [27] [%] | Activity (Melanocortin receptor 5 [28]) [%] | IC50 (Melanocortin receptor 4 [31]) [nM] | EC50 [32] [nM] | also measured
C[C@@H]1CN(C(=O)N[C@H](Cc2ccc(F)cc2)C(=O)N2CCC(C(=O)NC(C)(C)C)(C3CCCCC3)CC2)C[C@H](C)N1 | 35 | 850 | 4.7 | 5100 | 650 | > 3000 | 3.6 | 22 | 30 | 2 | 59 | 28 | 22 | 4.9 |  | Activity (Mus musculus [1]): inactive; half-life [2]: 5.3 h; CL/F [3]: 5.4 mL/min/kg; Activity (Mus musculus [4]): 37%; half-life [5]: 5.1 h; bioavailability [7]: 118%; INH [10]: > 10 µM; Activity [11]: 9.6 µM; Activity (Mus musculus [12]): Active; Vdss (Canis familiaris): 1.8 L/kg; Activity [13]: 6.8 µM; Activity (Rattus norvegicus [16]): Active; Activity (Rattus norvegicus [17]): Active; Activity (Mus musculus [18]): inactive; CL/F [19]: 5.2 mL/min/kg; Vdss (Rhesus monkey): 1 L/kg; concentration at 0.25 h [23]: 4700 nM; Activity (Rattus norvegicus [29]): Active; bioavailability [30]: 20%
CC[C@@H]1CN(C(=O)N[C@H](Cc2ccc(F)cc2)C(=O)N2CCC(C(=O)NC(C)(C)C)(C3CCCCC3)CC2)C[C@H](CC)N1 | 36 | 430 | 4.7 | 2100 | 230 |  | 1.2 | 13 | 24 | 1.7 | 41 | 46 | 14 | 4.7 | 420 | 
CC[C@@H]1CN(C(=O)N[C@H](Cc2ccc(F)cc2)C(=O)N2CCC(C(=O)NC(C)(C)C)(C3CCCCC3)CC2)C[C@@H](CC)N1 | 62 | 1300 | 8.2 | 2800 | 390 |  | 0 |  | 31 | 1.8 | 18 | 18 | 1 | 5.1 | 400 | 
C[C@@H]1CN(C(=O)N[C@H](Cc2ccc(Cl)cc2)C(=O)N2CCC(C(=O)NC(C)(C)C)(C3CCCCC3)CC2)C[C@H](C)N1 |  | 54 |  | 1500 | 33 | 210 | 1.3 |  | 24 |  | 15 |  | 26 | 0.78 | 280 | 
C[C@@H]1CN(C(=O)N[C@H](Cc2ccc(F)cc2)C(=O)N2CCC(C(=O)NC(C)(C)C)(C3CCCCC3)CC2)C[C@@H](C)N1 | 43 | 1400 | 9.2 | 2100 | 970 | 1000 | 2.8 | 18 | 39 | 4.2 | 66 | 1.9 | 31 | 11 | 260 | 
C[C@@H]1CN(C(=O)N[C@H](Cc2ccc(F)cc2)C(=O)N2CCC(C(=O)NC(C)(C)C)(C3CCCCC3)CC2)C[C@H](C)N1C |  | 1400 |  | 7800 | 760 |  | 0.6 | 60 | 14 |  | 21 |  | 14 | 16 | 910 | 
C[C@H]1CN(C(=O)N[C@H](Cc2ccc(F)cc2)C(=O)N2CCC(C(=O)NC(C)(C)C)(C3CCCCC3)CC2)C[C@H](C)N1 |  | 1400 |  | 3300 | 740 | 1400 | 2 | 58 | 46 |  | 58 |  | 30 | 12 | 250 | 
CC[C@H](NC(C)=O)c1cc(Cl)ccc1C1CCN(C(=O)[C@@H]2CN(C(C)(C)C)C[C@H]2c2ccc(F)cc2F)CC1 |  |  |  |  |  |  |  |  |  |  |  |  |  |  |  | Activity (Rattus norvegicus [17]): Active; Activity (Mus musculus [33]): Active; Activity (Mus musculus [18]): Active; concentration at 0.25 h [34]: 47 nM
